From patent US10204708B2, “System and method for deriving parameters for homeostatic feedback control of an individual” (Agency for Science, Technology and Research, priority 2012, dated 2019)

Key:
Assay type in all cases: in vivo, human
[1] = thyroid function test, thyroid-stimulating hormone [TSH] level of patient under treatment
Description: (§1) The method 10 is particularly suited to derive the hypothalamus pituitary (HP) characteristic of the individual. The HP characteristic of, the individual relates the level of thyroid-stimulating hormone [TSH] level in milliunits per liter (mU/L) and the corresponding free thyroxin [FT4] level in picomoles per liter (pmol/L) in the individual. In the following description, homeostatic measurements would be understood to refer to measurements of the level of [TSH] and corresponding [FT4] in an individual.
(§2) Each homeostatic measurement comprises a value of a [TSH] reading and a corresponding [FT4] reading. To determine the S and φ parameters for the individual, at least two well distinguishable homeostatic, measurements (i.e. ([FT4]1, [TSH]1) and ([FT4]2, [TSH]2)) from the individual are obtained with a predetermined time gap in between each measurement. The measurements are performed on samples taken near the same time of the day by the same analytical measurement method and ideally applied by one and the same person whenever feasible to minimise errors that can compromise the accuracy of the model estimates.
(§3) Preferably, the individual measurements are performed in a fasting condition and separated by 6 weeks while under medical treatment for a hypothyroidism or hyperthyroidism state with the replacement hormone for [T4] leading to a state of clinical euthyroidism.
(§4) Any method known for measuring homeostatic parameters would be suitable, for example, various types of chromatography, immunochemistry or other methods known to accurately measure the amount of a homeostatic expression product, as long as the same measurement method is applied by one and the same person.

[2] = thyroid function test, free thyroxin [FT4] level of patient under treatment
Description: as §1, §2, §3, §4

[3] = clinical course of hypothyroid Graves' disease patient on L-thyroxin; details: Example 3 patient, 75 mcg L-T4 daily
Description: They were thus started on L-thyroxin from day 456 at 25 mcg daily, and escalated to 50 mcg daily from day 715.

[4] = Example 1 patient, day 0, Rx CMZ 20
[5] = Example 1 patient, day 53, Rx CMZ 10
[6] = Example 1 patient, day 86, Rx CMZ 30
[7] = Example 1 patient, day 125, Rx CMZ 10
[8] = Example 1 patient, day 210, Rx LT4 50 (mcg daily), after radioiodine-131 ablation
[9] = Example 1 patient, day 269, Rx LT4 50 (mcg daily)
[10] = Example 6 patient, 1 Oct. 2007, LT4 100
[11] = Example 6 patient, 2 May 1997, LT4 25
[12] = Example 6 patient, 3 May 2005, LT4 75
[13] = Example 6 patient, 5 Oct. 2005, LT4 100
[14] = Example 6 patient, 6 May 2011, LT4 100
[15] = Example 6 patient, 10 Dec. 2010, LT4 100
[16] = Example 6 patient, 12 Feb. 2007, LT4 100
[17] = Example 6 patient, 14 May 2007, LT4 100
[18] = Example 6 patient, 16 Aug. 1999, LT4 50
[19] = Example 6 patient, 16 Mar. 2012, LT4 100
[20] = Example 6 patient, 17 Aug. 1998, LT4 50
[21] = Example 6 patient, 19 Oct. 2006, LT4 100
[22] = Example 6 patient, 21 Jun. 2006, LT4 100
[23] = Example 6 patient, 23 Jan. 2006, LT4 100
[24] = Example 6 patient, 24 Apr. 2002, LT4 50
[25] = Example 6 patient, 26 Oct. 1999, LT4 50
[26] = Example 6 patient, 28 Jul. 2008, LT4 100

CCOC(=O)n1ccn(C)c1=S [CMZ, carbimazole]
TSH [1, 4]: <0.01 mU/L | TSH [1, 5]: <0.01 mU/L | TSH [1, 6]: 0.005 mU/L | TSH [1, 7]: 0.02 mU/L | FT4 [2, 4]: 53.3 pmol/L | FT4 [2, 5]: 12.5 pmol/L | FT4 [2, 6]: 31.3 pmol/L | FT4 [2, 7]: 11 pmol/L

N[C@@H](Cc1cc(I)c(Oc2cc(I)c(O)c(I)c2)c(I)c1)C(=O)O [LT4, levothyroxin]
TSH [1, 8]: 9.05 mU/L | TSH [1, 9]: 0.12 mU/L | TSH [1, 10]: 4.34 mU/L | TSH [1, 11]: 8.64 mU/L | TSH [1, 12]: 6.67 mU/L | TSH [1, 13]: 1.10 mU/L | TSH [1, 14]: 0.99 mU/L | TSH [1, 15]: 0.41 mU/L | TSH [1, 16]: 2.65 mU/L | TSH [1, 17]: 1.72 mU/L | TSH [1, 18]: 4.96 mU/L | TSH [1, 19]: 2.20 mU/L | TSH [1, 20]: 8.71 mU/L | TSH [1, 21]: 2.43 mU/L | TSH [1, 22]: 1.48 mU/L | TSH [1, 23]: 2.18 mU/L | TSH [1, 24]: 2.32 mU/L | TSH [1, 25]: 3.03 mU/L | TSH [1, 26]: 3.12 mU/L | FT4 [2, 8]: 5 pmol/L | FT4 [2, 9]: 10 pmol/L | FT4 ([2]; Example 4 patient, radiation-induced thyroid failure, LT4 25 mcg once daily): about 10 pmol/L | FT4 [2, 10]: 11 pmol/L | FT4 [2, 11]: 11.5 pmol/L | FT4 [2, 12]: 13 pmol/L | FT4 [2, 13]: 16 pmol/L | FT4 [2, 14]: 17 pmol/L | FT4 [2, 15]: 18 pmol/L | FT4 [2, 16]: 15 pmol/L | FT4 [2, 17]: 14 pmol/L | FT4 [2, 18]: 12 pmol/L | FT4 [2, 19]: 15 pmol/L | FT4 [2, 20]: 10.6 pmol/L | FT4 [2, 21]: 12 pmol/L | FT4 [2, 22]: 13 pmol/L | FT4 [2, 23]: 14 pmol/L | FT4 [2, 24]: 13 pmol/L | FT4 [2, 25]: 14 pmol/L | FT4 [2, 26]: 13 pmol/L | clinical outcome [3]: euthyroidism and resolution of all their hypothyroid symptoms
